Measured values reported in PMC4307180, “Overcoming myelosuppression due to synthetic lethal toxicity for FLT3-targeted acute myeloid leukemia therapy” (eLife, 2014).
Entries after “also recorded” stand apart in the source; their conditions may differ.

How the values were obtained:
[1] = tested on: mpo+ myeloid cells in zebrafish embryos; assay: Zebrafish normal myelopoiesis, mpo WISH in posterior blood island; assay type: in vivo, Danio rerio (zebrafish); conditions: 10 μM, 6 to 30 hpf, read at 30 hpf, vs DMSO
Method: Figure 4. […] (N–P) Three categories of mpo transcription (N, normal; O, intermediate; P, severe) were defined based on the WISH results (three experiments). […] Scale bar equals 500 μm. Blue arrows indicate the pericardial edema, green arrows indicate tail shortening and curving, and red arrows indicate the FLT3-ITD AML mpo+ myeloid cells expansion. […] For all experiments: Zebrafish embryos were collected and kept in standard E3 medium at 28°C. Different concentrations of either drug were added to the E3 medium from 6 hr post fertilization (hpf) to 3 days post fertilization (dpf). Embryos treated with DMSO or 10 μM drug from 6 to 30 hpf were collected for mpo whole mount in situ hybridization (WISH) analysis. […] plasmid DNA containing FLT3/ITD sequence was microinjected into one-cell stage embryos, and the uninjected embryos were used as control. FLT3/ITD-injected embryos were treated with DMSO or 10 μM drug from 6 to 30 hpf.
Wild-type (WT) zebrafish were maintained under standard conditions, and embryos were staged as described ([He et al., 2014]). The study was approved by the Committee of the Use of Live Animals for Teaching and Research in The University of Hong Kong.

[2] = tested on: Ba/F3 FLT3 ITD + D698N; assay: Ba/F3 cell viability, FLT3 ITD + D698N; assay type: cell-based; conditions: Mus musculus, Ba/F3, 48 hr, ± SEM
Method: (§1) Stable Ba/F3 lines were generated by retroviral spinfection with the appropriate mutated plasmid as previously described ([Smith et al., 2012]).
(§2) Exponentially growing cells (5 × 10^3 cells per well) were plated in each well of a 96-well plate with 0.1 ml of RPMI 1640 + 10% (vol/vol) FCS containing the appropriate concentration of drug in triplicate, and cell viability was assessed after 48 hr as previously described ([Smith et al., 2012]). […] Log10-scale transformation of ratios, followed by conditional formatting using xcel spreadsheet software yielded the colored diagrams shown.
Mutations isolated in the screen were engineered into pMSCVpuroFLT3–ITD by QuikChange mutagenesis (Stratagene, La Jolla, CA) as previously described ([Smith et al., 2012]).

[3] = molecular target: T1, FLT3 (Homo sapiens, UniProt P36888); assay: Reaction Biology Corp kinase assay at Km-ATP (Figure 1C), FLT3
T1 sequence (P36888 27-993): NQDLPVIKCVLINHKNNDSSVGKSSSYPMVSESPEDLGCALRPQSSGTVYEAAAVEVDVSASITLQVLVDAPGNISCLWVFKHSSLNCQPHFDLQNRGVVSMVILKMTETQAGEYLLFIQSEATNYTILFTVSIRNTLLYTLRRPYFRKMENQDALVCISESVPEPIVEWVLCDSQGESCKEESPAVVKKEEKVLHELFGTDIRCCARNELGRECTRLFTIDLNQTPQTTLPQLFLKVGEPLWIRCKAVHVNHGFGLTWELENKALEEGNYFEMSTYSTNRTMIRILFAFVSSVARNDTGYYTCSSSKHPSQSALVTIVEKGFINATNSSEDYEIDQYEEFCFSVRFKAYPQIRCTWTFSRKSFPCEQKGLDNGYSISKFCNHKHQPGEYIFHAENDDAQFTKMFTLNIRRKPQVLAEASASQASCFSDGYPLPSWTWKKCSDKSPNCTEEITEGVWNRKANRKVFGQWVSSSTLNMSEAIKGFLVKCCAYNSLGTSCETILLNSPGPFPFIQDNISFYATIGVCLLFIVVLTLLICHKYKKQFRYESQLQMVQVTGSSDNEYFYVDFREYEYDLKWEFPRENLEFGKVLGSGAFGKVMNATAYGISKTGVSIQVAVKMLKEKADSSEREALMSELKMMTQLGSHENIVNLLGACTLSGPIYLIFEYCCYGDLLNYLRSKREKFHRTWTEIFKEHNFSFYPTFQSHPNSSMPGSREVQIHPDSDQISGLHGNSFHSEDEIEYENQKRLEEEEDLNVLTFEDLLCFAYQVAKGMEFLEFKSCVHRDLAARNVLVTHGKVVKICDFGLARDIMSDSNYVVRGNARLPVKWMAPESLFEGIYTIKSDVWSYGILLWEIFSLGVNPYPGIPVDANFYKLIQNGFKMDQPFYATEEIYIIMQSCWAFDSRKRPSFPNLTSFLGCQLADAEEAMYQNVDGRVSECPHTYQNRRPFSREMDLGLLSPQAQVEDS

[4] = molecular target: T2, purified FLT3 WT (Homo sapiens, UniProt P36888); assay: Radiolabeled purified kinase assay (Figure 1B)
T2 sequence (P36888 27-993): T1 sequence (P36888 27-993)

[5] = tested on: HMC1.1 cells (KIT V560G); assay: Cell proliferation/viability assay, HMC1.1; assay type: cell-based, human
Method: as §2

[6] = tested on: Ba/F3 Parental + IL3; assay: Ba/F3 cell viability, Parental + IL3; assay type: cell-based; conditions: Mus musculus, BaF3; Ba/F3, 48 hr, ± SEM
Method: as §1, §2

- IC50 [2]: 174 ± 44 nM
- IC50 [3]: < 0.6 nM
- IC50 [4]: 1.5 nM
SMILES: CC1NC(=O)c2c1c1c3ccccc3n(CCCN)c1c1[nH]c3ccccc3c21 (stereo not shown) [Star 27]
- effect on mpo+ myeloid cells development in the PBI [1]: no statistically significant change; also recorded: non-significant difference
- IC50 ([5]; Homo sapiens, Kit V560 G, 48 hr, ± SEM): > 5000 nM
- selectivity window HMC1.1/MV4;11 ([5]; ratio of proliferation IC50s): > 122 fold
- IC50 [6]: 2300 nM
